Data from patent US11510943B2, “Chemotherapeutic agent comprising combination of alexidine dihydrochloride and sodium pentaborate pentahydrate” (YEDITEPE UNIVERSITESI, priority 2018, dated 2022).
“Also recorded” adds a separate entry of the source. Structures can show the parent of a compound that is named as a salt.

Assays:
[1] = test system: pancreatic cancer cell (MIA PaCa-2); test: colorimetric tetrazolium salt (MTS) viability assay, MIA PaCa-2; settings: Homo sapiens, MIA PaCa-2, 48 h, read-out: viability of MIA PaCa-2 cells
Description: (§1) This value is 10-20% more than the chemotherapeutic effect of alexidine dihydrochloride alone.

[2] = test system: pancreatic cancer cell (AsPc-1); test: colorimetric tetrazolium salt (MTS) viability assay, AsPc-1
Description: as §1

[3] = test system: pancreatic cancer cell (Psn-1); test: colorimetric tetrazolium salt (MTS) viability assay, Psn-1
Description: as §1

[4] = test system: healthy human pancreatic cell (hTert-HPNE); test: colorimetric tetrazolium salt (MTS) viability assay, hTert-HPNE; type: cell-based; settings: AD alone, 2.5 μM, 48 hours of incubation
[5] = test system: healthy intervertebral disc cell (HNPC); test: colorimetric tetrazolium salt (MTS) viability assay, HNPC; type: cell-based; settings: AD alone, 2.5 μM, 48 hours of incubation
[6] = test system: pancreatic cancer cells (MIA PaCa-2, AsPc-1 and Psn-1); test: colorimetric tetrazolium salt (MTS) viability assay, pancreatic cancer cells together; settings: Pancreatic cancer cell, 48 h, read-out: viability of the pancreatic cancer cells
Description: as §1

[7] = test system: healthy cells (hTert-HPNE, HNPC, hFSSCs, HUVEC); test: toxicity analysis (MTS viability assay), healthy cells together; type: cell-based
[8] = solubility in dimethylsulfoxide; type: physicochemical; settings: organic solvent or mixture
Experimental: The chemotherapeutic agent of the present invention comprises a combination of alexidine dihydrochloride and sodium pentaborate pentahydrate and induces apoptosis on pancreatic cancer cells. Alexidine dihydrochloride is a compound having a molecular weight of 581.71 gram/mol and the chemical formula of C26H56N10 ·2HCl and it is dissolved in dimethylsulfoxide of 10 mg/ml or above.

[9] = Experimental: The sodium pentaborate pentahydrate compound was dissolved in the appropriate medium for the cell that was used and filtered to enable sterilization.
[10] = AD alone 2.5 μM, 48-hour incubation, dihydrochloride

dissolution in the medium ([9]; concentrations used (100-1000 μM), no additional solvent) | Molecule | viability at 2.5 µM [1] [%] | viability of AsPc-1 cells [2, 10] [%] | viability at 2.5 µM ([2]; Homo sapiens, ASPC1, 48 h, read-out: viability of AsPc-1 cells, AD alone 2.5 μM, 48-hour incubation) [%] | viability of Psn-1 cells [3, 10] [%] | viability at 2.5 µM ([3]; Homo sapiens, PSN1, 48 h, read-out: viability of Psn-1 cells, AD alone 2.5 μM, 48-hour incubation) [%] | effect on healthy pancreas cell (hTert-HPNE) [4] | effect on healthy intervertebral disc cells (HNPC) [5] | viability at 2.5 µM [6] [%] | effect on healthy cells ([7]; AD alone 2.5 μM, 48-hour incubation, hTert-HPNE and HNPC, dihydrochloride) | solubility [8] [µg/mL] | average vitality ([7]; NAB alone 1000 μM, incubated for 48 hours, hTert-HPNE, HNPC, hFSSCs, HUVEC) [%] | precipitate formation in the medium ([9]; medium pH 7.4, 72 hours)
– | CCCCC(CC)CNC(=N)NC(=N)NCCCCCCNC(=N)NC(=N)NCC(CC)CCCC (stereo not shown) [AD, alexidine dihydrochloride] | 53 | 58.3 | 58 | 51.6 | 45 | not affected | not affected | 50 | did not harm the healthy cells; also recorded: do not kill the healthy cells | ≥ 10000 | – | –
dissolved instantly | sodium pentaborate pentahydrate [NAB] | – | – | – | – | – | – | – | – | – | – | 70 | did not form sodium pentaborate pentahydrate precipitate
